From patent US11136601B2, “Conversion of S-lignin compounds to useful intermediates” (Alliance for Sustainable Energy, LLC, priority 2018, dated 2021)

What was measured:
[1] = target: T1, VanAB (vanillate demethylase; purified VanA and VanB subunits) (Pseudomonas putida, UniProt Q88GI6); assay: VanAB in vitro enzymatic assay (kinetics and specific activity, NADPH consumption at 340 nm); settings: for VanAB specific activity: 100 μM substrate, pH 7.5; for VanAB specific activity / Kcat: 100 μM NADPH; for Kcat: Michaelis-Menten kinetics, 20 mM Tris-HCl pH 7.5
Procedure: VanAB activity was also tested towards vanillate analogous substrates such as vanillin, ferulic acid, sinapinic acid, methyl vanillate, ethyl vanillate, and guaiacol.
(§1) Activity assay were followed by cofactor NADPH consumption monitored spectrophotometrically at 340 nm.

[2] = system: P. putida KT2440 wild-type; assay: Toxicity assessment of S-lignin derived monomers, growth (OD600) of wild-type strain; type: cell-based, Pseudomonas putida; settings: wild-type KT2440, M9 minimal media with 20 mM glucose
Text: (§2) FIG. 9 illustrates: Panel A. Wild-type P. putida KT24401 and Panel B. P. putida CJ486 (second copy vanAB overexpressed in genome), both according to some embodiments of the present disclosure. […] Cultures were sampled periodically to evaluate growth by OD600 and metabolite concentrations in the media using HPLC. Each point represents the average of two measurements with error bars representing their range.
(§3) FIG. 10 illustrates: Panel A. Wild-type P. putida KT2440; and Panel B. P. putida CJ486 (second copy vanAB overexpressed in genome), both according to some embodiments of the present disclosure. Cells were grown in M9 minimal medium containing 20 mM glucose and various concentrations of SAL. Cultures were sampled periodically to evaluate growth by OD600 and metabolite concentrations in the media using HPLC. Each point represents the average of two measurements with error bars representing their range.
as §2, with “11” for “9”, “KT2440;” for “KT24401”
(§4) To evaluate this, the engineered strain CJ486 and wild-type strain were grown in M9 minimal media containing 20 mM glucose and various concentrations of the S-lignin monomers.
(§5) Strains were cultivated overnight in LB medium, washed once with 1×M9 medium (6.78 g/L disodium phosphate, 3 g/L monopotassium phosphate, 0.5 g/L NaCl, 1 g/L NH4Cl, 2 mM MgSO4, 100 μM CaCl2), and 18 μM FeSO4, pH 7.0) and used to inoculate 125 mL baffled flasks containing M9 minimal media supplemented with various concentrations of S-lignin monomers (SA, 3-MGA or syringaldehyde (SAL), stock solution dissolved in 2% DMSO) and 20 mM glucose in some cases, to an optical density of 0.1 and incubated shaking at 225 rpm, 30° C. Cultures were sampled periodically by removing 1 mL that was used to measure the OD600 using a spectrophotometer (DU640 Beckman Coulter). In the case of 3-MGA provided to wild-type strain KT2440, SN166 and SN175, the reaction was downscaled to 50 mL baffled flasks containing 10 mL minimal media and the experiment was performed in duplicate.

[3] = system: P. putida CJ486 (second copy vanAB overexpressed in genome); assay: Toxicity assessment of S-lignin derived monomers, growth (OD600) of engineered strain CJ486; type: cell-based, Pseudomonas putida; settings: strain CJ486, M9 minimal media with 20 mM glucose
Text: as §2, §3
as §2, with “11” for “9”, “KT2440;” for “KT24401”
as §4, §5

[4] = target: T1, VanAB (vanillate demethylase; purified VanA and VanB subunits); assay: VanAB in vitro time course of substrate consumption and product formation (HPLC); type: biochemical, P. putida KT2440; settings: 30 minutes time course, 100 μM substrate, VanAB 1.3 μM, room temperature
Procedure: FIG. 13 illustrates time course of VA consumption/PCA production and SA consumption/3-MGA production, according to some embodiments of the present disclosure. VanAB (1.3 μM) was incubated with 100 μM VA or SA at room temperature, in the presence of 0.5 μM NADPH. Results are an average of at least two experiments.
FIG. 14 illustrates time-course of 3MGA consumption and GA formation, according to some embodiments of the present disclosure.
as §1
Metabolites analysis: Samples from the in vivo experiments were centrifuged to remove the cells and the supernatants were filtered through a 0.2 μm syringe filter and metabolite concentrations were analyzed on an Agilent 1100 series HPLC equipped with Phenominex Rezex™ RFQ-Fast Acid H^+ (8%), LC Column, a diode array detector, and refractive index detector and a 0.01 N H2SO4 mobile phase. The products were identified by comparing the retention times and spectral profiles with pure compounds. Shake flask experiments were performed in triplicate and the standard deviation of the triplicate measurement were calculated using the following equation: in which x is each value in a sample, x is the average of the values, and n is the number of values. The same method was employed to analyze the metabolites from the in vitro reaction. PDC compounds was analyzed and quantified by ^1H NMR spectrum. […], of fermentation broth was diluted in 400 μL of deuterium oxide (Isotope Laboratories Inc.) and 50 μL of deuterium oxide containing known mass of the internal standard succinic acid.

[5] = substrate: COc1cc(C(=O)O)cc(OC)c1O; assay: purified protein, by the assay type; settings: other: Michaelis-Menten kinetics, 100 μM NADPH, 20 mM Tris-HCl pH 7.5, 30.0 °C
[6] = substrate: COc1cc(C(=O)O)ccc1O; assay: purified protein, by the assay type; settings: other: apparent constant (substrate inhibition kinetics); NADPH measured in the presence of VA; pH 7.5; 30.0 °C
[7] = apparent constant (substrate inhibition kinetics), NADPH measured in the presence of VA

T1 sequence (Q88GI5 entry or part of it, one chain of several): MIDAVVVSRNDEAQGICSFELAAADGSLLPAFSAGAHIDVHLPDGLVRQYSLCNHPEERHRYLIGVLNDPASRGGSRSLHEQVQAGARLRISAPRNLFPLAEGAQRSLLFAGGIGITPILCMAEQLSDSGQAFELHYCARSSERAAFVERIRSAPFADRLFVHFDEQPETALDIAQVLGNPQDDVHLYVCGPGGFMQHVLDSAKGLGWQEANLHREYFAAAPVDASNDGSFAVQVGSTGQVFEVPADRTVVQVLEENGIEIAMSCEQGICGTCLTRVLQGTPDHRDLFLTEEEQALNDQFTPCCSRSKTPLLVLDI

COc1cc(C=O)ccc1O [Vanillin, vanillin]
VanAB specific activity [1]: 49 ± 18 U/mg | VanAB specific activity ([1]; listed as vanillin): 49±18 U/mg | fold lower specific activity in comparison to VA ([1]; VanAB specific activity relative to VA): 10 fold

CCOC(=O)c1ccc(O)c(OC)c1 [Ethylvanillate, ethyl vanillate]
VanAB specific activity [1]: 100 ± 27 U/mg | VanAB specific activity ([1]; listed as ethyl vanillate): 100±27 U/mg

O=C(O)c1cc(O)c(O)c(O)c1 [Gallate, gallic acid]
concentration at which growth was completely inhibited (no growth) [2]: 50 mM | highest concentration tolerated / that allowed growth [2]: 20 mM | concentration at which growth was completely inhibited (no growth) [3]: 50 mM | highest concentration tolerated / that allowed growth [3]: 20 mM

NC(=O)C1=CN([C@@H]2O[C@H](COP(=O)(O)OP(=O)(O)OC[C@H]3O[C@@H](n4cnc5c(N)ncnc54)[C@H](OP(=O)(O)O)[C@@H]3O)[C@@H](O)[C@H]2O)C=CC1 [NADPH, reference compound]
KMapp [1, 7]: 26.7 ± 3.7 µM | Kcat^app [1, 7]: 2.7 ± 1.1 min⁻¹ | Ki ([1]; read-out: Ki (substrate inhibition), substrate inhibition kinetics, NADPH-dependent inhibition measured in the presence of VA): 25.3 ± 7.4 µM

COc1cc(C(=O)O)cc(O)c1O [3-MGA, 3-O-methyl gallate]
VanAB specific activity [1]: 264 ± 86 U/mg | Kcat [1]: 26.1 ± 2.8 min⁻¹ | Kcat ([1]; listed as 3MGA): 26.1 ± 2.8 min⁻¹

COc1cc(C(=O)O)cc(OC)c1O [Syringate, syringic acid]
VanAB specific activity [1]: 704 ± 103 U/mg | Kcat ([1]; listed as SA): 67.8 ± 4.1 min⁻¹ | product formed (protocatechuate from VA; 3-MGA from SA) [4]: 9 µM | residual substrate concentration [4]: 70 µM | highest concentration tolerated / that allowed growth [2]: at least 120 mM | highest concentration tolerated / that allowed growth [3]: at least 120 mM

COc1cc(C=O)cc(OC)c1O [SAL, syringaldehyde]
concentration at which growth was completely inhibited (no growth) [2]: 50 mM | highest concentration tolerated / that allowed growth [2]: 20 mM | concentration at which growth was completely inhibited (no growth) [3]: 50 mM | highest concentration tolerated / that allowed growth [3]: 20 mM

COc1ccccc1O [Guieicol, guaiacol]
VanAB specific activity [1]: 188 ± 16 U/mg | VanAB specific activity ([1]; listed as guaiacol): 188±16 U/mg

COc1cc(C(=O)O)ccc1O [Vanillate, vanillate]
VanAB specific activity [1]: 403 ± 59 U/mg | product formed (protocatechuate from VA; 3-MGA from SA) [4]: 47 µM | substrate converted (metabolized) [4]: 58 µM

B1: VanAB (vanillate demethylase; purified VanA and VanB subunits) (Pseudomonas putida KT2440) (protein)
chain: MYPKNTWYVACTPDEIATKPLGRQICGEKIVFYRARENQVAAVEDFCPHRGAPLSLGYVEDGNLVCGYHGLVMGCDGKTVSMPGQRVRGFPCNKTFAAVERYGFIWVWPGDQAQADPALIPHLEWAVSDEWAYGGGLFHIGCDYRLMIDNLMDLTHETYVHASSIGQKEIDEAPPVTTVTGDEVVTARHMENIMAPPFWRMALRGNGLADDVPVDRWQICRFTPPSHVLIEVGVAHAGKGGYHAEAQHKASSIVVDFITPESDTSIWYFWGMARNFAAHDQTLTDNIREGQGKIFSEDLEMLERQQQNLLAHPERNLLKLNIDAGGVQSRKVLERIIAQERAPQPQLIATSANPA
Km [5]: 113.9 ± 21.5 µM | kcat [5]: 67.8 ± 4.1 min⁻¹ | Km [6]: 4.3 ± 3.1 µM | kcat [6]: 16.8 ± 1.9 min⁻¹
